Experimental data reported in PMC5526551, “New hydrazonoindolin-2-ones: Synthesis, exploration of the possible anti-proliferative mechanism of action and encapsulation into PLGA microspheres” (PLoS ONE, 2017).
“Also recorded” adds a separate entry of the source.

Key:
Format in all cases: cell-based, human
A549 [1] = test: Anti-proliferative activity, cell growth inhibition (CellTiterGlo, 72 h); conditions: Homo sapiens; for IC50: A549, 72 h, read-out: IC50 A-549; for inhibition at 30 µM: A549, quadruplicate, read-out: Cell growth inhibitory activity, A-549
Method: (§1) Twenty compounds, i.e. 4a-o and 7a-e, were analyzed for cancer cell growth inhibitory activity. These studies were carried out using cells derived from human lung, colon and breast tumors (A549, HT-29 and ZR-75 cells, respectively). This initial assessment of activity tested each compound in quadruplicate at a single concentration of 30 μM, if solubility permitted.
(§2) A549, HT-29, ZR-75 were obtained from the American Type Culture Collection (ATCC). Cells were harvested from 90-95% confluent 10 cm dishes, and diluted in growth media (RPMI-1640 supplemented with 5% fetal bovine serum). An appropriate concentration of cells were prepared to add 1,250 cells in a volume of 25 µL per well in tissue culture treated Griener 384-well microplates, then incubated overnight at 37°C. Compound 7e was diluted to a concentration of 30 µM in DMSO. Concentrated dosing solutions of twice the final concentration were prepared by dilution of the DMSO stocks 1:500 in growth media. Two-fold serial dilutions were then prepared in medium containing 0.2% DMSO to maintain a constant concentration of vehicle throughout the concentration range of the compound. Each of these was added in an equal volume (25 µL) to four wells on each cell assay plate, along with the vehicle control. The highest concentration for serial dilutions of the positive control (sunitinib) was prepared exactly as the experimental compound 7e. Cells were incubated with the compounds for a further 72 h.
(§3) At the end of the treatment period, assay plates were allowed to cool to RT for 10 min prior to the addition of 25 µL per well Promega CellTiterGlo reagent, followed by additional 10 min incubation at RT. The resulting luminescence was quantitated using a Molecular Devices Spectramax Paradigm.
(§4) Percent growth inhibition was calculated as follows, where 100 represents the viability of vehicle treated control samples:
(§5) The potency of compounds was determined using the non-linear dose response algorithm (four-parameter logistic fit) with GraphPad Prism 5 software.

HT-29 = test: as above; conditions: Homo sapiens; for IC50: HT-29, 72 h, 72 h; for inhibition at 30 µM: HT-29, quadruplicate, read-out: Cell growth inhibitory activity, HT-29
Method: as §1, §2, §3, §4, §5

ZR-75 = test: as above; conditions: Homo sapiens; for IC50: ZR75, 72 h; for inhibition at 30 µM: ZR75, quadruplicate, read-out: Cell growth inhibitory activity, ZR-75
Method: as §1, §2, §3, §4, §5

A549 [2] = test: Cell cycle effects and total cell number (DAPI imaging); conditions: for Cell cycle effects: A549; for IC50: Homo sapiens
Method: Compound 7e was analyzed for effects on various aspects of cell cycle progression in human cancer cells. These studies were carried out using cells derived from lung adenocarcinoma (A549). This follow-up assessment of activity tested compounds used immunofluorescent imaging of phosphorylated Rb protein and the total DNA content of each cell to determine the cell cycle phase. The ability of the test compounds to affect the cell cycle and Rb phosphorylation was tested over a range of concentrations from less than 100 nM to 50 μM.
Fig 5 Dose-dependent changes in cell cycle. Distribution of cells within the cell cycle as well as total cell numbers were quantitated by fluorescent staining of nuclear DNA with DAPI. Phosphorylated Rb protein was detected by indirect immunofluorescence followed by automated image acquisition and analysis. […] All IC50 values are given under one unlabelled substance, with the y-axis title of each plot written in front as the measure.
A549 cells were harvested from a 90% confluent 10 cm dish and diluted in growth medium. An appropriate concentration of cells were prepared to add 5,000 cells in a volume of 100 µL per well in tissue culture treated PerkinElmer optical bottom ViewPlate microplates, then incubated overnight at 37°C. The following day, compound 7e and the positive control, sunitinib, were diluted in DMSO to concentrations 1000-fold above the maximum tested concentration.
Concentrated dosing solutions of twice the final concentration were prepared by dilution of the DMSO stocks 1:500 in growth media. Three-fold dilutions of each dosing medium were then prepared in medium containing 0.2% DMSO to maintain a constant concentration of vehicle throughout the concentration range of each compound. Each of these was added in equal volume (100 µL) to each well on the assay plate, along with the vehicle control. One plate of cells was incubated with the compounds for a further 24 h, and a separate plate was incubated with the compounds for 48 h.
DAPI (1 µg/mL) fluorescent dye was incubated with fixed cells to quantitate double stranded DNA within each cell nucleus to determine cell cycle distribution. DNA content in each cell was determined by total DAPI fluorescent intensity by high throughput image acquisition and analysis. Fluorescent intensities were plotted on histograms with threshold intensity values assigned to each cell cycle classification using the MetaXpress cell cycle analysis program. Results from each treatment were reported as average cell number in each of nine fields, as well as the percentage of cells within each phase of the cell cycle. Each of these parameters was analyzed using GraphPad Prism, and, where appropriate, IC50 values have been reported.

[3] = A549, 24 h, read-out: IC50 for reductions in the total cell number
[4] = A549, 48 h, read-out: IC50 for reductions in the total cell number

Row | Structure (SMILES) | IC50 (A549 [1]) | inhibition at 30 µM (A549 [1]) | IC50 (HT-29) | inhibition at 30 µM (HT-29) | IC50 (ZR-75) | inhibition at 30 µM (ZR-75) | Cell cycle effects (A549 [2]) | IC50 (A549 [2]; A549, 24 h, read-out: IC50, % G1-Phase cells) | IC50 (A549 [2]; [3]) | IC50 (A549 [2]; A549, 48 h, read-out: IC50, % G1-Phase cells) | IC50 (A549 [2]; [4])
1 | O=C1Nc2ccc(Br)cc2C1=NN=C1C(=O)N(Cc2ccccc2)c2ccccc21 [Compound 7e, 1-Benzyl-3-((5-bromo-2-oxoindolin-3-ylidene)hydrazono)indolin-2-one] | 2.83 µM | 97.1 ± 3.3% | 2.49 µM | 95.7 ± 4.2% | 1.79 µM | 96.1 ± 4.6% | decreased the percentage of cells in the G1 phase of the cell cycle with a corresponding increase in the S-phase; also recorded: decrease in the percentage of cells in the G1 phase of the cell cycle with a corresponding increase in the S-phase; also recorded: G1 decreased, S-phase increased | 6.26 µM | 2.67 µM | 5.16 µM | 2.36 µM
2 | CCN(CC)CCNC(=O)c1c(C)[nH]c(/C=C2\C(=O)Nc3ccc(F)cc32)c1C [Sunitinib, sunitinib, reference compound] | 5.87 µM | 85.7 ± 2.7% | 10.1 µM | 59.5 ± 2.3% | 8.31 µM | 90.7 ± 4.5% | G1 decreased and G2/M-phases increased |  | 12.5 µM |  | 3.48 µM
